Assay results as given in US11298412B2, “Sphingoid compounds for prophylaxis and/or therapy of coronaviridae infection” (priority 2020, dated 2022).
“Also recorded” adds a separate entry of the source.

Experiments:
pp-VSV-SARS-CoV-2 = assay: Adhesion of pp-VSV-SARS-CoV-2 on Vero cells, flow cytometry with anti-spike S1; format: cell-based; conditions: 20 minutes infection in presence of lipid
[1] = test system: lymphocytic choriomeningitis virus (LCMV); format: cell-based, LCMV strain WE; conditions: 24 hours
recombinant ACE2 = molecular target: T1, recombinant ACE2 (Homo sapiens, UniProt Q9BYF1); assay: Binding of lipids to immobilized recombinant ACE2; conditions: sphingosine at 2 μM
T1 construct: purchased Abcam ab273687

[2] = test system: lymphocytic choriomeningitis virus (LCMV); format: cell-based, LCMV strain WE
[3] = test system: vesicular stomatitis virus (VSV); format: cell-based, VSV strain Indiana; conditions: 24 hours

T1 sequence (Q9BYF1 18-805): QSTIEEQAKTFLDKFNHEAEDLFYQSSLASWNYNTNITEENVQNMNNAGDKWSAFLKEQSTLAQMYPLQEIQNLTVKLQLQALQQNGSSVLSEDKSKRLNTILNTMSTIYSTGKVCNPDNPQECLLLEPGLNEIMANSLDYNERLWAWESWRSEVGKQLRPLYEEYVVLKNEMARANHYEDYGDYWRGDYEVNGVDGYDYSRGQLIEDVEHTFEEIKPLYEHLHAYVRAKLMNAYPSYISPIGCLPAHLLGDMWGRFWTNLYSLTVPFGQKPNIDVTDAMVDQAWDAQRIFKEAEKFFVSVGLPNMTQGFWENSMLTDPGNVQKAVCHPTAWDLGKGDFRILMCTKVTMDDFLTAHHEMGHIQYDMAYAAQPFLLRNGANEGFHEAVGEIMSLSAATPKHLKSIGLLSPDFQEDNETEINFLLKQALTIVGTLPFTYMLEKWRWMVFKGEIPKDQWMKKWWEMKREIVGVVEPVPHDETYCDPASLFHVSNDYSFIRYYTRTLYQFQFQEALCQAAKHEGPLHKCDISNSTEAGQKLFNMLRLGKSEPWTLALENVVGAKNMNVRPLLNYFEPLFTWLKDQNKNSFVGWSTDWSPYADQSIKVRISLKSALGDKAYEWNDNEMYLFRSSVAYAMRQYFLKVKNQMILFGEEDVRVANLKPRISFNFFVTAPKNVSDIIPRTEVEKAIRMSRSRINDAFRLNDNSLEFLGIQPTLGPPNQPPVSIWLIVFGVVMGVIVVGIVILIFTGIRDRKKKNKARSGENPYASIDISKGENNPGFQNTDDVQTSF

Compound | binding of pp-VSV-SARS-CoV-2 to the cell surface (pp-VSV-SARS-CoV-2) | binding of lipid to immobilized recombinant ACE2 (beads) (recombinant ACE2) | also measured
CCCCCCCCCCCCC/C=C/[C@@H](O)[C@H](CO)NC(=O)CCCCCCCCCCCCCCC [C16-ceramide] | None of the other lipids had an effect | – | –
Oc1ccc(Nc2nc(-c3ccc(Cl)cc3)cs2)cc1 [SKII, [2-(p-hydroxyanilino)-4-(p-chlorophenyl)thiazole]] | – | – | spreading of the virus (LCMV-infected cells) [1]: inhibits spreading of the virus; also recorded: inhibits the spreading of the virus
CCCCCCCCCCCCC/C=C/[C@@H](O)[C@@H](N)COP(=O)(O)O [sphingosine 1-phosphate] | None of the other lipids had an effect | showed no interation with the beads | –
cardiolipin | None of the other lipids had an effect | showed no interation with the beads | –
ceramide | – | showed no interation with the beads | –
lactosyl-ceramide | None of the other lipids had an effect | – | –
phosphatidyl-ethanolamine | – | showed no interation with the beads | –
phosphatidylcholine | None of the other lipids had an effect | showed no interation with the beads | –
sphingomyelin | None of the other lipids had an effect | showed no interation with the beads | –
sphingomyelinase | – | – | propagation of LCMV (infectious LCMV particles in the supernatant) [2]: reduced propagation of LCMV; also recorded: inhibits the propagation of LCMV; propagation of VSV (number of plaques) [3]: inhibits the propagation of VSV
